Experimental data reported in patent US20250002483A1, “S[…]-ALANINATE DERIVATIVES” (Bayer Aktiengesellschaft, priority 2021, published 2025).

Assay: physchem
Conditions: 25 °C, pH 4, aqueous buffer, thermodynamic from solid
Description: 25 mg compound are placed in 2 ml solvent. […] Thereafter, the solution or suspension is filtered and the remaining solution is analyzed via HPLC. The solubility is determined by comparison of the total area of the substance peak to a calibration curve (external standard).
Thereafter, the solution was centrifuged and analyzed via HPLC. The solubility was determined by comparison of the total area of the substance peak to a calibration curve (external standard). The measurements were conducted in triplicates.

CCc1c(N2CC[C@H](O)C2=O)cccc1S(=O)(=O)N[C@@H](CNC(=O)c1ccc(Cl)s1)C(=O)OCCc1nccn1C.Cl [Example 2, 2-(1-Methyl-1H-imidazol-2-yl)ethyl 3-[(5-chlorothiophene-2-carbonyl)amino]-N-{2-ethyl-3-[(3S)-3-hydroxy-2-oxopyrrolidin-1-yl]benzene-1-sulfonyl}-S-alaninate hydrochloride]
solubility: > 500 mg/mL
